# Results reported in patent US20250276995A1, “PRODUCTION METHOD FOR PEPTIDE COMPOUND” (CHUGAI SEIYAKU KABUSHIKI KAISHA, priority 2022, published 2025).
# Assay: Verification of solubility of carbodiimide-derived urea in NMP and DMF
# Type: physicochemical
# Settings: for Re-precipitation: 0.77 M, after 24 hours or more
# From the text: The concentration of carbodiimide at the time of preactivation performed in the elongation steps of Reference Example 2-3 and Examples 2-4 and 2-5 was 0.77 mol/L. To confirm the risk of precipitation in case that all carbodiimide is converted to urea, the solubility in NMP and DMF was confirmed according to the following procedure, using the DIC-derived urea with which precipitates were confirmed in Reference Examples 2-3 and the DsBC-derived urea with which no precipitates were confirmed in Examples 2-4 and 2-5.
# Into 1.5 mL vials with a screw cap, DIC urea (compound SS05) and DsBC urea (compound SS06) synthesized in Example 1-3 were weighed and placed as described in Table 11, and NMP or DMF was added to be each concentration. The mixture was stirred at room temperature for 5 minutes or more, and then allowed to stand to confirm whether the urea was dissolved or not. […]
# [1] = solvent DMF, concentration 0.77 M (0.77 mol/L), room temperature
# [2] = solvent NMP, concentration 0.77 M (0.77 mol/L), room temperature
Dissolved or not (in DMF at 0.17 M or more),Dissolved or not (in NMP at a concentration of 0.34 M or more),"Dissolved or not (solvent DMF, concentration 0.17 M, room temperature)","Dissolved or not (solvent DMF, concentration 0.34 M, room temperature)","Dissolved or not (solvent DMF, concentration 0.38 M, room temperature)","Dissolved or not (solvent DMF, concentration 0.51 M, room temperature)",Dissolved or not [1],"Dissolved or not (solvent NMP, concentration 0.17 M, room temperature, stirred 5 minutes or more then allowed to stand)","Dissolved or not (solvent NMP, concentration 0.34 M, room temperature)","Dissolved or not (solvent NMP, concentration 0.38 M, room temperature)","Dissolved or not (solvent NMP, concentration 0.51 M, room temperature)",Dissolved or not [2],Re-precipitation (DMF),Re-precipitation (NMP),"Dissolved or not (solvent DMF, concentration 0.77 M (0.77 mol/L), room temperature, listed as DsBC Urea (SS06))","Dissolved or not (solvent NMP, concentration 0.77 M (0.77 mol/L), room temperature, listed as DsBC Urea (SS06))",SMILES
not fully dissolved,not fully dissolved,not fully dissolved,not fully dissolved,not fully dissolved,not fully dissolved,not fully dissolved,dissolved,not fully dissolved,not fully dissolved,not fully dissolved,not fully dissolved,,,,,"CC(C)NC(=O)NC(C)C [SS05, 1,3-Diisopropylurea]"
,,,,,,completely dissolved,,,,,completely dissolved,no re-precipitation was confirmed,no re-precipitation was confirmed,,,"CCNC(=O)NC(C)(C)C [SS07, 1-(tert-butyl)-3-ethylurea]"
,,,,,,completely dissolved,,,,,completely dissolved,no re-precipitation was confirmed,no re-precipitation was confirmed,dissolved,dissolved,"CCC(C)NC(=O)NC(C)CC (stereo not shown) [SS06, 1,3-di-sec-butylurea]"
